{"source": "patent US20170274004A1", "about": "“TREATMENT OF CANCER USING TLR9 AGONIST WITH CHECKPOINT INHIBITORS” (IDERA PHARMACEUTICALS, INC., priority 2014, published 2017)", "assay_type_in_all_cases": "in vivo, BALB/c mice", "key": {"A20 cells": {"tested_on": "A20 cells", "test": "Intratumoral vs subcutaneous TLR9 agonist in A20 lymphoma model (Example 2)", "experimental": "BALB/c mice (n=10) were implanted s.c with 3×10^6 A20 cells on the right flank. Treatment was initiated on day 8 with either intratumoral (i.t.) or subcutaneous (s.c.) injection of 2.5 mg/kg IMO-4. IMO-4 was given on days 8, 10, 12 and 14. Samples from placebo (PBS) control and IMO-4 treated tumor-bearing mice were collected on day 21 after tumor implantation. […] Intratumoral IMO-4 also modulated tumor checkpoint expression compared to subcutaneous administration thereby sensitizing the tumor microenvironment for combination with one or more checkpoint inhibitors (data not shown)."}, "A20 lymphoma": {"tested_on": "A20 lymphoma", "test": "Intratumoral TLR9 agonist in A20 lymphoma model, treated and distant tumors (Example 3)"}, "CT26 cells [1]": {"tested_on": "CT26 cells", "test": "Intratumoral TLR9 agonist in CT26 colon carcinoma model, treated and distant tumors (Example 4)", "experimental": "(§1) BALB/c mice (n=9) were implanted s.c with 2×10^6 CT26 cells on the right and left flank. Treatment was initiated on day 7 with intratumoral injection in the left flank with 2.5 mg/kg IMO-4. IMO-4 was given on days 7, 9, 11, 13 and 15. Samples from placebo (PBS) control and IMO-4 treated tumor-bearing mice were collected on day 27 after tumor implantation. […] Intratumoral IMO-4 also modulated tumor checkpoint expression thereby sensitizing the tumor microenvironment for combination with one or more checkpoint inhibitors (data not shown)."}, "B16 cells": {"tested_on": "B16 cells", "test": "Intratumoral TLR9 agonist in B16 melanoma model, treated and distant tumors (Example 5)", "experimental": "as §1, with “s.c with 1×10^6 B16 cells on” for “s.c with 2×10^6 CT26 cells on”, “flank with of 2.5 mg/kg” for “flank with 2.5 mg/kg”, “on day 22 after tumor” for “on day 27 after tumor”"}, "[2]": {"tested_on": "murine colon carcinoma CT26 cells", "test": "TLR9 agonist and anti-PD-1 mAb combination, CT26 treated and distant tumors (Example 7)", "conditions": "FIG. 11", "experimental": "BALB/c mice (n=8 per group) were implanted s.c with 1×10^7 murine colon carcinoma CT26 cells in right flank (Tumor 1) and left flank (Tumor 2). Treatment was initiated on day 7 when tumor volume on reaches 200 to 300 mm^3. 2.5 mg/kg IMO-4 (50 μg in 100 μl PBS) was i.t injected at right tumor nodules and anti-PD-1 mAb (10 mg/kg, 200 μg/mouse) was administered by i.p injection either alone or co-administered on days 7, 8, 11 and 12 for total 4 times. Tumor nodules were collected at day 14."}, "CT26 cells [3]": {"tested_on": "CT26 cells", "test": "TLR9 agonist and anti-IDO1 inhibitor combination, CT26 treated tumors and systemic lung metastases (Example 9)", "conditions": "compared with PBS group (nodules infiltrating most of the lung tissues); FIG. 16 legend", "experimental": "BALB/c mice were implanted s.c with 1×10^7 CT26 cells on right flank. The mice were than i.v injected with 3×10^6 CT26 cells to establish lung metastases. Treatment was initiated on day 4. 2.5 mg/kg IMO-4 was administered intratumorally into solid tumors on the right flank and 75 mg/kg anti-IDO1 inhibitor was administered orally (p.o.). IMO-4 and anti-IDO1 inhibitor were given either alone or co-administered on days 4, 5, 7, and 8. Anti-IDO1 was administered twice. Samples from control, IMO-4, anti-IDO1 inhibitor or IMO-4 and anti-IDO1 inhibitor treated tumor-bearing mice were collected. FIGS. 14 through 17 show the effects of IMO-4 and anti-IDO1 inhibitor on directly treated tumors and systemic lung metastasis."}}}
{"substance": "5-TCGAACG1TTCG1-X-G1CTTG1CAAG1CT-5′ (chain 1 TCGAACGTTCG; chain 2 TCGAACGTTCG; two copies joined 3'-3' by glycerol linker; G1 modified; modified_base (3)..(3) 2′-deoxy-7-deazaguanosine; modified_base (7)..(7) 2′-deoxy-7-deazaguanosine; modified_base (11)..(11) 2′-deoxy-7-deazaguanosine) [IMO-4]", "values": [{"measurement": "antitumor activity", "setting": "A20 cells; intratumoral 2.5 mg/kg on days 8, 10, 12, 14, FIG. 3", "value": "potent antitumor activity"}, {"measurement": "CD3+ TIL infiltration", "setting": "A20 cells; intratumoral 2.5 mg/kg, samples day 21, FIG. 3", "value": "induced"}, {"measurement": "tumor checkpoint expression", "setting": "A20 cells; intratumoral compared to subcutaneous administration, data not shown", "value": "modulated"}, {"measurement": "antitumor activity, treated and distant tumor nodules", "setting": "A20 lymphoma; intratumoral in left flank, 2.5 mg/kg on days 8, 10, 12, 14, FIG. 4", "value": "potent antitumor activity in both treated and distant tumor nodules"}, {"measurement": "tumor checkpoint expression", "setting": "A20 lymphoma; intratumoral, data not shown", "value": "modulated"}, {"measurement": "antitumor activity, treated and distant tumor nodules", "setting": "CT26 cells [1]; intratumoral in left flank, 2.5 mg/kg on days 7, 9, 11, 13, 15, FIG. 5", "value": "potent antitumor activity in both treated and distant tumor nodules"}, {"measurement": "tumor checkpoint expression", "setting": "CT26 cells [1]; intratumoral, data not shown", "value": "modulated"}, {"measurement": "antitumor activity, treated and distant tumor nodules", "setting": "B16 cells; intratumoral in left flank, 2.5 mg/kg on days 7, 9, 11, 13, 15, FIG. 6", "value": "potent antitumor activity in both treated and distant tumor nodules"}, {"measurement": "tumor checkpoint expression", "setting": "B16 cells; intratumoral, data not shown", "value": "modulated"}, {"measurement": "CD3+ cells in tumor tissue", "setting": "[2]; compared with few CD3+ cells in PBS (vehicle) mice", "value": "a large number of CD+3 cells"}, {"measurement": "T lymphocyte infiltration into tumor tissues", "setting": "[2]; tumor nodules collected day 14", "value": "increases"}, {"measurement": "tumor nodules in lung tissues", "setting": "CT26 cells [3]", "value": "tumor nodules are smaller than that of the PBS group"}]}
